From PMC12428554, “Anti-HIV and Antimicrobial Activity of 7-Hydrazino-8-hydroxyquinoline-Based Aromatic Hydrazones” (International Journal of Molecular Sciences, 2025)
“And” between values parts separate entries of the source, which are not always exact repeats. Identical values can stand only once.

Assays:
S. aureus ATCC 29213 = assay: MIC by twofold serial dilution, S. aureus; type: cell-based; details: Staphylococcus aureus, ATCC29213, 24 h, 37 °C, read-out: MIC (Mean ± SE) S. aureus ATCC 29213
Method: (§1) Candida albicans ATCC 10231, Pseudomonas aeruginosa ATCC 27853, and Staphylococcus aureus ATCC 29213 strains were obtained from the American Type Culture Collection (ATCC; Rockville, MD, USA). The subculture and inoculum preparation were performed according to CLSI M27-A3 for C. albicans on yeast extract peptone dextrose (YPD) agar (HiMedia, Mumbai, Maharashtra, India) and RPMI-1640 medium (PanEco, Moscow, Russia) with MOPS (3-(N-morpholino) propanesulfonic acid, >99.5%; PanEco, Moscow, Russia), and M7-A11 for P. aeruginosa and S. aureus on Mueller-Hinton agar (MHA; HiMedia, Mumbai, Maharashtra, India) and Mueller-Hinton broth (MHB; HiMedia, Mumbai, Maharashtra, India). The stock cell concentrations of fungus and bacteria were 1 × 10^6 and 1 × 10^8 cells/mL, respectively. A working suspension of C. albicans (5.0 × 10^2 cells/mL) was prepared by two-step dilution of the broth concentration with the RPMI-1640 medium. Assay suspensions of P. aeruginosa and S. aureus (1.0 × 10^6 cells/mL) were prepared by diluting the concentration with Mueller-Hinton broth (HiMedia, Mumbai, Maharashtra, India). Amphotericin B (Sigma-Aldrich, Burlington, MA, USA) and gentamicin (Sigma-Aldrich, Burlington, MA, USA) were used as secondary pharmaceutical standards.
(§2) The minimum inhibitory concentration (MIC) was determined by the twofold serial dilution method, according to CLSI M27-A3 [33] and M07-A11 [34], in three independent experiments with four replicates each. Amphotericin B was used as a positive control for fungus; gentamicin was used as a positive control for bacteria. Stock solutions except gentamicin were prepared in DMSO at a concentration of 6400 μg/mL. Gentanicin was solubilized in sterile water at a concentration of 1280 μg/mL. Stock solutions of the tested substances were diluted to the final concentrations in the assay medium and 100 μL of each sample was added to the wells of 96-well plates, and then 100 μL of inoculum was added. Rows 11 and 12 were left for the negative control (medium with inoculum without the drug) and sterility control. The plates were incubated for 24 h at 35 °C in the case of C. albicans and at 37 °C in the case of P. aeruginosa and S. aureus. The tested concentration for gentamicin ranged from 0.0625 to 32 μg/mL; for other compounds, it ranged from 0.125 to 64 μg/mL. The MIC value was determined using spectrophotometer. The MIC was taken to be the lowest drug concentration that caused complete inhibition of microorganism growth compared to the control. The final MIC values were reported as the means with standard error (SE). Standard errors for µg/mL values less than 0.01 were excluded; standard errors for µM values less than 0.1 were excluded (Table 3).

P. aeruginosa ATCC 27853 = assay: MIC by twofold serial dilution, P. aeruginosa; type: cell-based; details: Pseudomonas aeruginosa, ATCC27853; 24 h, 37 °C; read-out: MIC (Mean ± SE) P. aeruginosa ATCC 27853
Method: as §1, §2

Ku70 = test system: Ku70; design: method as in PMID 27130816; details: read-out: IC50, Ku70 interaction with DNA; cited from earlier work
[1] = test system: HIV-1 (subtype B) in MT-4 cells; assay: Antigen p24 assay in HIV-infected MT-4 cells; type: cell-based; details: Human immunodeficiency virus 1, MT4; HIV-1 899A strain (subtype B), third day after infection
Method: The human MT-4 lymphoblastoid cells were cultured in RPMI 1640 medium supplemented with 10% fetal bovine serum (FBS) (HyClone, Logan, UT, USA), 2 mM L-glutamine, 50 U/mL penicillin, and 50 μg/mL streptomycin in a humidified atmosphere of 5% CO2 at 37 °C. The cells were re-seeded at a density of 3.0 × 10^5 cells/mL every three days. The HIV-1_899A strain (subtype B) was used from the collection of human immunodeficiency virus strains of the D.I. Ivanovsky Institute of Virology, N. F. Gamaleya National Research Center of Epidemiology and Microbiology, Ministry of Health, Moscow, Russia. The commercial drug Efavirenz (EFV), a non-nucleoside inhibitor of HIV reverse transcriptase, was used as a positive control. HIV-1 was added to the cells at 0.1 CCID50 (50% cell culture infectious dose). The cells, both infected and non-infected, were then incubated at 37 °C in a humidified atmosphere containing 5% CO2 for a 40 min period, after which the cells were washed twice in serum-free RPMI 1640 and plated into the wells of a 96-well plate. The tested compounds were then added to the cells at concentrations from 0.5 μM to 100 μM. The final ethanol concentration was 1% v/v. On the third day after infection, the culture fluid was collected for determining the amount of p24 antigen by enzyme immunoassay analysis using a commercial test system kit (Genscreen ULTRA HIV Ag-Ab, Bio-Rad, Hercules, CA, USA). Cell viability was measured by MTT assay.

[2] = target: T1, recombinant HIV-1 Integrase (strand transfer) (Human immunodeficiency virus type 1 group M subtype B, UniProt P04585); design: method as in PMID 12234864; details: positive control, known value; cited from earlier work
T1 construct: The recombinant HIV-1 Integrase (In) was isolated from the Rosetta Escherichia coli producer strain; made in house; host or cells: Escherichia coli Rosetta

C. albicans ATCC 10231 = assay: MIC by twofold serial dilution, C. albicans; type: cell-based; details: Candida albicans, ATCC10231; 24 h, 35 °C; read-out: MIC (Mean ± SE) C. albicans ATCC 10231
Method: as §1, §2

[3] = test system: HIV Rev – HIV RNA complex; design: method as in PMID 25503645, PMID 17967062; details: Figure 1; cited from earlier work

## CNC(C)C1CCC(N)C(OC2C(N)CC(N)C(OC3OCC(C)(O)C(NC)C3O)C2O)O1 (stereo not shown) [Gentamicin, reference compound]
S. aureus ATCC 29213
  MIC: 0.6 µg/mL and 1.3 µM
P. aeruginosa ATCC 27853
  MIC: 2 µg/mL and 4.2 µM

## COc1ccc(CCNc2ncc3c(=O)n(-c4cccc(F)c4)c(=O)[nH]c3n2)cc1OC [STL127705]
Ku70
  IC50: 3.5 µM

## O=C1Nc2ccc(Cl)cc2[C@@](C#CC2CC2)(C(F)(F)F)O1 [EFV, Efavirenz, reference compound]
[1]
  IC50: < 0.05 µM

## O=C(O)C(=O)CC(=O)c1cc(OCc2ccccc2)cc(OCc2ccccc2)c1 [L-708,906]
[2]
  IC50: 0.5 ± 0.1 µM

## C[C@@H]1[C@H](O)[C@@H](C)/C=C/C=C/C=C/C=C/C=C/C=C/C=C/[C@H](O[C@@H]2O[C@H](C)[C@@H](O)[C@H](N)[C@@H]2O)C[C@@H]2O[C@](O)(C[C@@H](O)C[C@@H](O)[C@H](O)CC[C@@H](O)C[C@@H](O)CC(=O)O[C@H]1C)C[C@H](O)[C@H]2C(=O)O [Amphotericin B, reference compound]
C. albicans ATCC 10231
  MIC: 0.4 µg/mL and 0.4 µM

## FC(F)(F)Oc1ccc(Nc2ccc3cccc(Cl)c3n2)cc1 [ABX464]
[3]
  IC50: 0.1 to 0.5 µM
